The first experiment concerns 8XTBD luciferase reporter (YAP reporter) in HEK293T cells. As to the kind of experiment: YAP Reporter Assay. The settings on record: Homo sapiens, HEK-293T, 24 h, read-out: Firefly Luciferase IC50 (μM). The format is cell-based. The protocol:
HEK293T cells stably transfected with 8XTBD luciferase reporter and pRLTK in 384-well plates were treated with the test compounds, starting from 3 μM (final concentration in assay plate), 1:3 dilution, and 10 points in quadruplicates. Post 24-hr incubation with compounds at 37° C. and 5% CO2, cells were lysed and 8XTBD-driven firefly luciferase and control TK-driven renilla luciferase activities were measured using Promega Dual-Luciferase Reporter Assay System.
Reagents: The reagents used for this study are: DMEM: Invitrogen #11960077, Dual-Glo Luciferase Assay System: Promega-E2980, Puromycin Dihydrochloride: Invitrogen-A1113803, 384-well plate: PerkinElmer-6007480, L-GLUTAMINE: Invitrogen-25030164, Hygromycin B: Invitrogen-10687010, and Penicillin-Streptomycin: Merk-TMS-AB2-C
Media: The media used for this assay were: Culture Medium: DMEM+1 ug/mL puromycin+200 ug/mL hygromycin (with 10% FBS+1 mM L-glutamine); and Assay Medium: DMEM (with 10% FBS+1 mM L-glutamine+1×P/S).
Cell Plating: The appropriate media was warmed at 37° C. by water bath: Culture Medium, Assay Medium, 1*D-PBS, 0.05% trypsin-EDTA. The cells were trypsinized after removing all media, then washed with 1*sterile D-PBS and then with 2 ml 0.05% trypsin-EDTA. The cells were then incubated at RT for one minute. Then 10 ml/75 cm2 flask Assay Medium was added to each flask. Using a 10 ml pipette, the cells were then gently resuspended in the media, until the clumps completely disappeared. The cells were then transferred into 50 ml centrifuge tubes and were centrifuged at 800 rpm for 5 mins. The medium was removed and the cells were resuspended with Assay Medium. An aliquot of cells was used to count the cell density (cells/ml). The cell suspension was then diluted with Assay Medium to a concentration of 6×10^4 cells/ml. 50 ul cells suspension was then plated to 384-well plate (PerkinElmer-6007480), 3×10^3 cells/well and the cells were incubated in an incubator at 37° C. 5% CO2.
Compound Treatment: In the afternoon (incubation of the plate with 3-4 hrs), the test compounds were added by Echo, starting from 3 uM (final concentration in the assay plate), 1:3 dilution, 10 points, quadruplicates. The plate was placed at 37° C. 5% CO2 incubator for 24 hrs.
Detection: The Dual-Glo Luciferase Reagent was prepared by transferring the contents of one bottle of Dual-Glo Luciferase Buffer to one bottle of Dual-Glo Luciferase Substrate to create the Dual-Glo Luciferase Reagent. Mixing was performed by inversion until the substrate was thoroughly dissolved. After mixing, the reagent was aliquoted into 15 ml tubes. In the afternoon (24 hrs post compound treatment), the DMEM+ medium in the 384 well plates were aspirated by Microplate Washer.
Measuring firefly luciferase activity: 20 ul Dual-Glo Luciferase Reagent was added to the 384-well plates. The plates were protected from light to prevent interference with the assay. The plates were shaken for 1 min followed centrifuging plates at 1000 rpm for 30 seconds. After waiting at least 10 minutes, the firefly luminescence was measured by Envision.
Measuring renilla luciferase activity: 20 ul Stop-Glo Reagent was added to the 384-well plates. The plates were shaken for 1 min and then centrifuged at 1000 rpm for 30 seconds. After waiting at least 10 minutes, the renilla luminescence was measured by Envision.
Compound IC50 and maximum inhibition on the firefly luciferase and renilla luciferase activities were reported separately.
(A reporter such as luciferase makes a cellular process visible.)
Turning to `O=C(NCC(F)(F)F)c1ccc2c(-c3ccc(C(F)(F)F)cc3)cccc2c1` [Compound 54, N-(2,2,2-trifluoroethyl)-5-(4-(trifluoromethyl)phenyl)-2-naphthamide], the IC50 (as a rule, the point on the concentration scale where inhibition reaches its midpoint) is less than 0.1 µM.

Still in this experiment, the particulars now being: Homo sapiens, HEK-293T; HEK293T cells stably transfected with 8XTBD luciferase reporter and pRLTK; 24-hr incubation; top concentration 3 μM; read-out: Firefly Luciferase IC50.
Take `CC(C)NC(=O)c1ccc2c(-c3ccc(C(F)(F)F)cc3)cc(Br)cc2c1` [Compound 32, 7-bromo-N-isopropyl-5-[4-(trifluoromethyl)phenyl]naphthalene-2-carboxamide]: the IC50 was less than 0.1 µM. On to `CC(C)NC(=O)c1ccc2c(-c3ccc(C(F)(F)F)cc3)cc(Cl)c(N)c2c1` [Compound 33, 8-amino-7-chloro-N-isopropyl-5-(4-(trifluoromethyl)phenyl)-2-naphthamide], for which the IC50 was less than 0.1 µM.

Consider `CC(C)NC(=O)c1ccc2c(-c3ccc(C(F)(F)F)cc3)ccc(N(C)S(C)(=O)=O)c2c1` [Compound 34, N-isopropyl-8-(N-methylmethylsulfonamido)-5-(4-(trifluoromethyl)phenyl)-2-naphthamide], for which the half-maximal inhibitory concentration (IC50) was in the range of 1 to 3 µM. As for `CC(C)NC(=O)c1ccc2c(-c3ccc(C(F)(F)F)cc3)cc3onnc3c2c1` [Compound 35, N-isopropyl-5-[4-(trifluoromethyl)phenyl]benzo[e][1,2,3]benzoxadiazole-8-carboxamide], the IC50 was 0.1 to 1 µM. For `CC(C)NC(=O)c1ccc2c(-c3ccc(C(F)(F)F)cc3)cc(Cl)cc2c1` [Compound 36, 7-chloro-N-isopropyl-5-(4-(trifluoromethyl)phenyl)-2-naphthamide], the IC50 was less than 0.1 µM. Still for that read-out and setting: the value for `COc1ccc(-c2ccc(C(F)(F)F)cc2)c2ccc(C(=O)NC(C)C)cc12` [Compound 37, N-isopropyl-8-methoxy-5-[4-(trifluoromethyl)phenyl]naphthalene-2-carboxamide] was less than 0.1 µM; that for `C#Cc1cc(-c2ccc(C(F)(F)F)cc2)c2ccc(C(=O)NC(C)C)cc2c1` [Compound 38, 7-ethynyl-N-isopropyl-5-(4-(trifluoromethyl)phenyl)-2-naphthamide] was less than 0.1 µM; that for `COc1cc(-c2ccc(C(F)(F)F)cc2)c2ccc(C(=O)NC(C)C)cc2c1` [Compound 39, N-isopropyl-7-methoxy-5-[4-(trifluoromethyl)phenyl]naphthalene-2-carboxamide] was less than 0.1 µM. As to `CC(=O)NCCOCCOCCNC(=O)c1ccc2c(-c3ccc(C(F)(F)F)cc3)cccc2c1` [Compound 40, N-(2-(2-(2-acetamidoethoxy)ethoxy)ethyl)-5-(4-(trifluoromethyl)phenyl)-2-naphthamide], the concentration for half-maximal inhibition (IC50) was less than 0.1 µM. `Cc1cc(-c2ccc(C(F)(F)F)cc2)c2ccc(C(=O)NC(C)C)cc2c1` [Compound 41, N-isopropyl-7-methyl-5-(4-(trifluoromethyl)phenyl)-2-naphthamide]: the IC50 is less than 0.1 µM. For the compound `CSc1cc(-c2ccc(C(F)(F)F)cc2)c2ccc(C(=O)NC(C)C)cc2c1` [Compound 42, N-isopropyl-7-(methylthio)-5-(4-(trifluoromethyl)phenyl)-2-naphthamide], the IC50 was less than 0.1 µM. On to `CC(C)NC(=O)c1ccc2c(-c3ccc(C(F)(F)F)cc3)cc(C3CC3)cc2c1` [Compound 43, 7-cyclopropyl-N-isopropyl-5-[4-(trifluoromethyl)phenyl]naphthalene-2-carboxamide], for which the IC50 is less than 0.1 µM. Same read-out and setting: to `CC(C)NC(=O)c1ccc2c(-c3ccc(C(F)(F)F)cc3)cc(N)cc2c1` [Compound 44, 7-amino-N-isopropyl-5-[4-(trifluoromethyl)phenyl]naphthalene-2-carboxamide] belongs less than 0.1 µM. Same read-out and setting: to `CC(C)NC(=O)c1ccc2c(-c3ccc(C(F)(F)F)cc3)cc([S+](C)[O-])cc2c1` (centres unmarked) [Compound 45, N-isopropyl-7-methylsulfinyl-5-[4-(trifluoromethyl)phenyl]naphthalene-2-carboxamide] belongs 0.1 to 1 µM.

Turning to `CC(C)NC(=O)c1ccc2c(-c3ccc(C(F)(F)F)cc3)cc(S(C)(=O)=O)cc2c1` [Compound 46, N-isopropyl-7-methylsulfonyl-5-[4-(trifluoromethyl)phenyl]naphthalene-2-carboxamide], the IC50 was less than 0.1 µM. On the same count and under the same terms, to `CCc1cc(-c2ccc(C(F)(F)F)cc2)c2ccc(C(=O)NC(C)C)cc2c1` [Compound 47, 7-ethyl-N-isopropyl-5-(4-(trifluoromethyl)phenyl)-2-naphthamide] belongs less than 0.1 µM. The same measure, in the same setting: to `CC(=O)Nc1cc(-c2ccc(C(F)(F)F)cc2)c2ccc(C(=O)NC(C)C)cc2c1` [Compound 48, 7-acetamido-N-isopropyl-5-(4-(trifluoromethyl)phenyl)-2-naphthamide] belongs 0.1 to 1 µM. Same read-out and setting: the value for `CC(C)(C)OC(=O)NCCOCCOCCNC(=O)c1ccc2c(-c3ccc(C(F)(F)F)cc3)cccc2c1` [Compound 49, Tert-Butyl (2-(2-(2-(5-(4-(trifluoromethyl)phenyl)-2-naphthamido)ethoxy)ethoxy)ethyl)carbamate] was 0.1 to 1 µM; that for `NCCOCCOCCNC(=O)c1ccc2c(-c3ccc(C(F)(F)F)cc3)cccc2c1` [Compound 50, N-(2-(2-(2-aminoethoxy)ethoxy)ethyl)-5-(4-(trifluoromethyl)phenyl)-2-naphthamide] was 0.1 to 1 µM. For the compound `CC(=O)N(C)c1cc(-c2ccc(C(F)(F)F)cc2)c2ccc(C(=O)NC(C)C)cc2c1` [Compound 51, N-isopropyl-7-(N-methylacetamido)-5-(4-(trifluoromethyl)phenyl)-2-naphthamide], the IC50 lay in the range of 0.1 to 1 µM. For `CC(C)NC(=O)c1ccc2c(-c3ccc(C(F)(F)F)cc3)cc(NS(C)(=O)=O)cc2c1` [Compound 52, N-isopropyl-7-(methylsulfonamido)-5-(4-(trifluoromethyl)phenyl)-2-naphthamide], the concentration for half-maximal inhibition (IC50) is less than 0.1 µM. On the same count and under the same terms, to `CC(C)NC(=O)c1ccc2c(-c3ccc(C(F)(F)F)cc3)cc(N(C)S(C)(=O)=O)cc2c1` [Compound 53, N-isopropyl-7-(N-methylmethylsulfonamido)-5-(4-(trifluoromethyl)phenyl)-2-naphthamide] belongs 0.1 to 1 µM.

Take `O=C(NC1CC1)c1ccc2c(-c3ccc(C(F)(F)F)cc3)cccc2c1` [Compound 55, N-cyclopropyl-5-(4-(trifluoromethyl)phenyl)-2-naphthamide]: the half-maximal inhibitory concentration (IC50) was less than 0.1 µM.

Take `O=C(NC(CO)CO)c1ccc2c(-c3ccc(C(F)(F)F)cc3)cccc2c1` [Compound 56, N-(1,3-dihydroxypropan-2-yl)-5-(4-(trifluoromethyl)phenyl)-2-naphthamide]: the IC50 is less than 0.1 µM. With `COCCOCCNC(=O)c1ccc2c(-c3ccc(C(F)(F)F)cc3)cccc2c1` [Compound 57, N-(2-(2-methoxyethoxy)ethyl)-5-(4-(trifluoromethyl)phenyl)-2-naphthamide], the IC50 was 0.1 to 1 µM.

For the compound `COCCNC(=O)c1ccc2c(-c3ccc(C(F)(F)F)cc3)cccc2c1` [Compound 58, N-(2-methoxyethyl)-5-(4-(trifluoromethyl)phenyl)-2-naphthamide], the IC50 is less than 0.1 µM. With `C[C@@H](CN)NC(=O)c1ccc2c(-c3ccc(C(F)(F)F)cc3)cccc2c1` [Compound 59, (S)—N-(1-aminopropan-2-yl)-5-(4-(trifluoromethyl)phenyl)-2-naphthamide], the IC50 lay within 0.1 to 1 µM. In the case of `C[C@H](CN)NC(=O)c1ccc2c(-c3ccc(C(F)(F)F)cc3)cccc2c1` [Compound 60, (R)—N-(1-aminopropan-2-yl)-5-(4-(trifluoromethyl)phenyl)-2-naphthamide], the half-maximal inhibitory concentration (IC50) is less than 0.1 µM.

Source of the values: patent US11866431B2, “Bicyclic compounds” (Vivace Therapeutics, Inc., priority 2018, dated 2024).
